Tested on: HUVEC + (IL-1β, TNFα and IFNy)
Assay: BioMAP 3C system
Type: cell-based, human
Conditions: annotated relative to vehicle controls
Text: Cell types and stimuli used in each system are as follows: 3C system [HUVEC + (IL-1β, TNFα and IFNy)], 4H system [HUVEC + (IL-4 and histamine)], LPS system [PBMC and HUVEC + LPS (TLR4 ligand)], SAg system [PBMC and HUVEC + TCR ligands], BT system [CD19+ B cells and PBMC + (α-IgM and TCR ligands)], BF4T system [bronchial epithelial cells and HDFn + (TNFα and IL-4)], BE3C system [bronchial epithelial cells + (IL-1β, TNFα and IFNy)], CASM3C system [coronary artery smooth muscle cells + (IL-1 β, TNFα and IFNy)], HDF3CGF system [HDFn + (IL-1β, TNFα, IFNy, EGF, bFGF and PDGF-BB)], KF3CT system [keratinocytes and HDFn + (IL-1β, TNFα, IFNy and TGFβ)], MyoF system [differentiated lung myofibroblasts + (TNFα and TGFβ)] and Mphg system [HUVEC and M1 macrophages + Zymosan (TLR2 ligand)].
Systems are derived from either single cell types or co-culture systems. Adherent cell types are cultured in 96 or 384-well plates until confluence, followed by the addition of PBMC (SAg and LPS systems). […] Soluble factors from supernatants are quantified using either HTRF® detection, bead-based multiplex immunoassay or capture ELISA. Overt adverse effects of test agents on cell proliferation and viability (cytotoxicity) are detected by sulforhodamine B (SRB) staining, for adherent cells, and alamarBlue® reduction for cells in suspension. […]

Q: How did the Increased biomarker activity turn out when sodium salt of dextran sulfate [LMW-DS] was run?
A: The Increased biomarker activity was “IL-8”.

Reference: patent publication US20230346827A1 (priority 2020, published 2023)
